The source made the active and inactive calls.
Tests used:
[1] = microbe, parasite or virus in culture; type: functional; settings: Mycobacterium tuberculosis
Cytochrome P450 3A4 = Cytochrome P450 3A4 (Homo sapiens, UniProt P08684); settings: Potency;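 further: confirmatory qHTS run detecting inhibitors and substrates of CYP3A4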
[2] = target: T1, Replicative DNA helicase DnaB (Mycobacterium tuberculosis, UniProt P9WMR3); assay: DnaB intein splicing inhibitors, dose response, biochemical, cell-free fluorescence (AID 449749); type: functional
T1 sequence (P9WMR3 whole entry): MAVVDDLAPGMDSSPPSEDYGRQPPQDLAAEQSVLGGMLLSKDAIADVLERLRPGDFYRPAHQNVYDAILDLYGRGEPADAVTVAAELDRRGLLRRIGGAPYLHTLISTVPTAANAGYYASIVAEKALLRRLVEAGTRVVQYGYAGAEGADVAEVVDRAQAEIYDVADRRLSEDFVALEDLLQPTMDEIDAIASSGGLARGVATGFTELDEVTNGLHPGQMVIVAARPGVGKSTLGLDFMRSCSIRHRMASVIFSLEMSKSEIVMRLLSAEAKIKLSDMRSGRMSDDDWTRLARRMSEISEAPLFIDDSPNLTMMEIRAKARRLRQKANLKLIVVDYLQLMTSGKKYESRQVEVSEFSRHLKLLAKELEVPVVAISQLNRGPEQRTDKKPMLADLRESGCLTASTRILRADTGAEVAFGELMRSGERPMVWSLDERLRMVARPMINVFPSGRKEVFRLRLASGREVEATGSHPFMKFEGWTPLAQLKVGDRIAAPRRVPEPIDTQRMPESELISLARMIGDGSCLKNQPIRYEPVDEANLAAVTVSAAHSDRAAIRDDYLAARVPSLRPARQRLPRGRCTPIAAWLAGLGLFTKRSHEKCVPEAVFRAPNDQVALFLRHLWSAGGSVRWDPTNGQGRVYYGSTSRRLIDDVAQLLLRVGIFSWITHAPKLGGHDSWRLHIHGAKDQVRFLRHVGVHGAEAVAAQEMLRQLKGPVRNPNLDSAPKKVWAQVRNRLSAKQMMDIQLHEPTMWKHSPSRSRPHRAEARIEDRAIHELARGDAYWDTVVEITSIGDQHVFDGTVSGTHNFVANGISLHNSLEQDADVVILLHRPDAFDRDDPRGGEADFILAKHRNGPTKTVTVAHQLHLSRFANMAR

Protein RecA = target: T2, Protein RecA (Mycobacterium tuberculosis, UniProt P9WHJ3); assay: Fluorescence Cell-Free Homogeneous Dose Retest to Identify Inhibitors of RecA-Intein Splicing Activity. [Related pubchem assays (depositor defined):AID2097, AID2223, AID489010, AID492950]; type: functional
T2 sequence (P9WHJ3 whole entry): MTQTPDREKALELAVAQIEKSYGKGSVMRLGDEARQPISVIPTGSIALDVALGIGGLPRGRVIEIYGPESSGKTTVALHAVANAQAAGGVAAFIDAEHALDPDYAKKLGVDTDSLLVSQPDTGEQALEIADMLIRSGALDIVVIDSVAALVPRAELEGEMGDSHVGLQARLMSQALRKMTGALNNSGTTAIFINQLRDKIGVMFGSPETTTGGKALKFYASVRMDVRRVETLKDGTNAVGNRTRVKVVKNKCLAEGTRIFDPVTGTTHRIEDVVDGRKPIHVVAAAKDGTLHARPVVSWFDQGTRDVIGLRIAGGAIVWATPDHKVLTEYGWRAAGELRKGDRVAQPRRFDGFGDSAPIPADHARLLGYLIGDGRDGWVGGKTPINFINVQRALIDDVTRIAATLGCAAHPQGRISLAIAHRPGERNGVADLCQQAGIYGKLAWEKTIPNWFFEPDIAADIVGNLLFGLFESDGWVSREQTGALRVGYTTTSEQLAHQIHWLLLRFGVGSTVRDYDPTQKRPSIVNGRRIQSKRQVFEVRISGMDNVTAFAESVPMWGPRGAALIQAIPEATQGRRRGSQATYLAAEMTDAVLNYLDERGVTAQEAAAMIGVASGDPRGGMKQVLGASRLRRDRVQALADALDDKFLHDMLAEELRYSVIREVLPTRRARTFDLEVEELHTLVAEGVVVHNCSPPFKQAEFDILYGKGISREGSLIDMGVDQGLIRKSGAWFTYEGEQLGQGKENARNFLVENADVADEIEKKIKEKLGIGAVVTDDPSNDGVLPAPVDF

[3] = luciferase reporter signal suppression in cells – H4 neuroglioma cells, luminescence, dose response (AID 1990); type: functional, cell-based
[4] = Luminescence Cell-Based Dose Response HTS to Identify Inhibitors of 5'UTR Stem-Loop Driven Prion Protein mRNA Translation in H4 Neuroglioblastoma Cells. [Related pubchem assays: 1827 (Project Summary), 1813 (Primary HTS)]; type: functional
[5] = alpha-synuclein stem-loop luciferase translation blockers – H4 neuroglioma cells, luminescence, confirmation (AID 1988); type: functional, cell-based
[6] = target: T3, Calpain-2 catalytic subunit (Sus scrofa, UniProt P43367); assay: m-calpain protease blockers, concentration series – biochemical, fluorogenic peptide substrate, dose response (AID 1420); type: functional
T3 sequence (P43367 whole entry): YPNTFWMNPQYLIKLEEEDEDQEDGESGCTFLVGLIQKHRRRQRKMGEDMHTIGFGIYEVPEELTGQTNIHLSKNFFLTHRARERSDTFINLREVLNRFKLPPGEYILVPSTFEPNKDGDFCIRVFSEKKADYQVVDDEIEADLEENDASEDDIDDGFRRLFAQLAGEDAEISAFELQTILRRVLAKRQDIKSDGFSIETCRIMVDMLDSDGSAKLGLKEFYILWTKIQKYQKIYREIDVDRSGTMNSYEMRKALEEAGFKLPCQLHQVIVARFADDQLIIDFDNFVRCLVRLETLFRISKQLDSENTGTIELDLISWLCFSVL

[7] = viability of uninfected HEp-2 cells – cell-based, HTS, cytotoxicity control for RSV inhibitor project, dose response (AID 2410); type: functional; settings: human respiratory syncytial virus
[8] = Luminescence Cell-Based Dose Retest to Confirm Inhibitors of Cancer Stem Cells. [Related pubchem assays (depositor defined):AID2717, AID2721]; type: functional; settings: Homo sapiens
[9] = target: Luciferin 4-monooxygenase (Photinus pyralis, UniProt P08659); assay: inhibition of purified Photinus pyralis luciferase – biochemical, luminescence, dose response (AID 1891)
[10] = Luminescence Cell-Based Dose Confirmation HTS to Identify Inhibitors of Platelet Dense Granule Release. [Related pubchem assays: 1663 (Primary HTS), 1678 (Summary of Project)]; type: functional
H9c2 = assay: cells; type: functional, cell-based; settings: Rattus norvegicus, H9c2, Myocardium;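 further: confirmatory concentration-response retest of ultra-high-throughput screening hits for modulation of myocardial damage; cell death induced by hydrogen peroxide oxidative stress; compound pretreatment for 60 min then peroxide exposure for 2 h; potency is for protecting the cells against peroxide damage rather than for killing them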
[11] = NIH-3T3 fibroblast cytotoxicity, dose response, cytotoxicity control, cell-based, fluorescence, Alamar Blue, secondary assay (AID 2327); type: functional;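 further: NIH-3T3 mouse fibroblasts cultured with fluconazole at 8 µg/mL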
[12] = system: Streptococcus sp. 'group A'; assay: Streptococcus pyogenes SK(-)GAS viability under kanamycin – luminescence, BacTiterGlo, confirmation, counter-screen for streptokinase expression inhibitor project, dose response (AID 1900); type: functional, organism-based
Streptokinase A = target: T4, Streptokinase A (Streptococcus pyogenes serotype M1, UniProt P10520); assay: viability-normalized secreted streptokinase activity reduction – plasminogen activation absorbance, OD405, dose response (AID 1914); type: functional, Streptococcus pyogenes M1 GAS;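 further: secreted streptokinase activity via plasminogen activation per viability signal from cell pellet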
T4 sequence (P10520 whole entry): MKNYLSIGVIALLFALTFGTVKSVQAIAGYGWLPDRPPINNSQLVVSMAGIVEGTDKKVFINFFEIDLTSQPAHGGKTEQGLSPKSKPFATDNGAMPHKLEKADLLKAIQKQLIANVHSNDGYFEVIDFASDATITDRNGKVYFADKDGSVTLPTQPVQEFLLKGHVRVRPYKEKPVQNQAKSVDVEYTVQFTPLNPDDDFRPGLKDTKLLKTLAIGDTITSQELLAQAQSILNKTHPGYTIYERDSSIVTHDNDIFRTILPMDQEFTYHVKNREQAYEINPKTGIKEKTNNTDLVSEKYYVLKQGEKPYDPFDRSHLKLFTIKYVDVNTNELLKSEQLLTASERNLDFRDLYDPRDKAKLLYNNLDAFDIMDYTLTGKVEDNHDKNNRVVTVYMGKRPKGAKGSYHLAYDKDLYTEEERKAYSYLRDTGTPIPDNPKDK

Streptococcus = assay: GAS UMAA2166 growth inhibition – luminescence, BacTiterGlo, counter-screen for streptokinase expression inhibitor project, dose response (AID 1915); type: functional, organism-based;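 further: potency for reduction of bacterial viability or growth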
[13] = target: T5, Rac GTPase-activating protein 1 (Homo sapiens, UniProt Q9H0H5); assay: blockers of MgcRacGAP-driven Rac1 GTP hydrolysis – biochemical, ADP Hunter fluorescence, primary and confirmatory, confirmation (AID 624330); type: functional
T5 sequence (Q9H0H5 whole entry): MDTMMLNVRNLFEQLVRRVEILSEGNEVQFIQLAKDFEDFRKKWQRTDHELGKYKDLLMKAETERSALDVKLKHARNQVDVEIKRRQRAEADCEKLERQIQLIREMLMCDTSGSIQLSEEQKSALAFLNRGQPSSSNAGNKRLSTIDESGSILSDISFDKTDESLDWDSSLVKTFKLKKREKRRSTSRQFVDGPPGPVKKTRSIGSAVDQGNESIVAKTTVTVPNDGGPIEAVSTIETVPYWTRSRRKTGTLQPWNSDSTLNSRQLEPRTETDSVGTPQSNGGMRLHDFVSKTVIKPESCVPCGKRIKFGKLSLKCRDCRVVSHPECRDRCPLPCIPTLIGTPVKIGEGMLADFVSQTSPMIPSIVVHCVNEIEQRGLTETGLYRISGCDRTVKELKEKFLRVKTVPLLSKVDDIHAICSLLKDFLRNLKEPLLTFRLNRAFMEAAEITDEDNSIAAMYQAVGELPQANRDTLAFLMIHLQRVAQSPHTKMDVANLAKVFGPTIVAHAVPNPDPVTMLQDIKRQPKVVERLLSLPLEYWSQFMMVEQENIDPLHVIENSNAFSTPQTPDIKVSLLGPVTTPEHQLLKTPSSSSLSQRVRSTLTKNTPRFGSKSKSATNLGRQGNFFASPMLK

Cytochrome P450 3A4, sequence (P08684 whole entry): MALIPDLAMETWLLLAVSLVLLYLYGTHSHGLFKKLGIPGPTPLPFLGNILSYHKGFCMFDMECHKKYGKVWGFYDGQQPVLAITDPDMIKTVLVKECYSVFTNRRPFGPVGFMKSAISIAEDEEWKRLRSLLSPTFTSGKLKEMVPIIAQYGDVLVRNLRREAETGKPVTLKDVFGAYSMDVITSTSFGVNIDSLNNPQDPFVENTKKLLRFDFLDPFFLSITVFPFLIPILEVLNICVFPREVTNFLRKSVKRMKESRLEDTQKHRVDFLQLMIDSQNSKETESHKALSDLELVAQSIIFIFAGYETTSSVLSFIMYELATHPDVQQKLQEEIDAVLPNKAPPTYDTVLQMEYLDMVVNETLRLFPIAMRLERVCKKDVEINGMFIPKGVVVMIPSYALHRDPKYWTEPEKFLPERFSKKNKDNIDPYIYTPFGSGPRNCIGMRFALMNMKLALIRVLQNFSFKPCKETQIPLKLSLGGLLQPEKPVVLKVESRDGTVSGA
Luciferin 4-monooxygenase, sequence (P08659 whole entry): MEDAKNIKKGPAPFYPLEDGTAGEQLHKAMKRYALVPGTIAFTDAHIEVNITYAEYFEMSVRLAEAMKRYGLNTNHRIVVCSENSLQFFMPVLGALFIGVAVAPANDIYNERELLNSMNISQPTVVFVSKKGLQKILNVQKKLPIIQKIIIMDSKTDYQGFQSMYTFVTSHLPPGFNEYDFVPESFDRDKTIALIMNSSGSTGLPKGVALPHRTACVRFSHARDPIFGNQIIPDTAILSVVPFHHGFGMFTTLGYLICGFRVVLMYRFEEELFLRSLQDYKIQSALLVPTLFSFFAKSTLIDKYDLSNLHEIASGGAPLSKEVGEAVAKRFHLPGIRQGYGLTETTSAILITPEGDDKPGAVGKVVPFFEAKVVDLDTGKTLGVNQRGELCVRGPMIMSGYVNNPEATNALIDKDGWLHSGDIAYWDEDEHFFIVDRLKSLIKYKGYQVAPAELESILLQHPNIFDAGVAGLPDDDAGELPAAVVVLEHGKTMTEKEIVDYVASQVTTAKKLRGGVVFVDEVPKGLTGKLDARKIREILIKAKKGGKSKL

c1ccc(CN2CCC3(CCCc4ccccc43)CC2)cc1
CC50 [1]: > 40 µM (active)

COC(=O)[C@@H]1C[C@H]2CC[C@H](O)C[C@H]2N1Cc1ccc(-c2ccccc2)cc1
AC50 (Cytochrome P450 3A4): 12.6 µM (inconclusive)

CCCc1n[nH]c2c1C(c1ccc(OC(=O)N3CCOCC3)cc1)C(C#N)=C(N)O2 (stereo not given)
AC50 [2]: 23.5 µM (active) | EC50 (Protein RecA): 11.8 µM (active)

CC(C)c1ccc(/C=C/C2=NNC(=O)CC2)cc1
EC50 [3]: < 0.1 µM (active) | EC50 [4]: 11.5 µM (active) | EC50 [5]: 0.13 µM (active) | IC50 [6]: 14.3 µM (not active)

N#C/C(=C\c1c(F)cccc1Cl)c1nn(-c2ccccc2)c(-n2cccc2)c1C#N
CC50 [7]: > 50 µM (active) | AC50 [8]: 0.966 µM (active) | AC50 [2]: 28.9 µM (active) | EC50 (Protein RecA): 1.34 µM (inconclusive)

COc1ccc2nc(NN=C3C(=O)CC(C)(C)CC3=O)sc2c1
CC50 [1]: 26.2 µM (active)

CCN(CC)CCCn1c(-c2ccccc2)nc2c(NCc3ccccc3)nc(C)nc21
AC50 (Cytochrome P450 3A4): 10 µM (inconclusive)

COC(=O)[C@@H]1C[C@@]2(O)[C@H](O)[C@H](O)[C@H](O)C[C@H]2N1Cc1ccc(N2CCN(C)CC2)cc1
AC50 (Cytochrome P450 3A4): 31.6 µM (inconclusive)

CCc1nnc(NC(=O)[C@@H](NC(=O)c2cc(OC)cc(OC)c2)C(C)C)s1
EC50 [9]: > 112 µM (not active) | EC50 [10]: > 112 µM (not active) | IC50 [6]: 49.9 µM (not active)

COc1ccc(OC2C(O)COC2/C=C/C#Cc2ccccc2)cc1 (stereo not given)
AC50 (Cytochrome P450 3A4): 3.98 µM (inconclusive)

COc1ccc(/C=C/C(=O)c2ccccc2)cc1COc1ccc(F)cc1
AC50 [2]: 17.1 µM (active) | EC50 (Protein RecA): 37.2 µM (active)

CC(=O)OCC(=O)[C@@]1(O)CCC2C3CC(C)C4=CC(=O)C=CC4(C)C3C(O)CC21C (stereo not given in full)
AC50 (Cytochrome P450 3A4): 12.6 µM (inconclusive)

Cc1nc(N2CCOCC2)c2nc(-c3ccccc3)n(CC(C)(C)CN(C)C)c2n1
AC50 (Cytochrome P450 3A4): 10 µM (inconclusive)

COc1ccc2[nH]cc(CC(N)C(=O)O)c2c1 (stereo not given)
AC50 (Cytochrome P450 3A4): 31.6 µM (inconclusive)

Cc1ccc(OCC(=O)NCc2nnc(O)c3ccccc23)cc1
IC50 (H9c2): > 79 µM (inactive)

N#Cc1ccc(C23CC4(C2)[C@H](CN(CC2CCCCC2)[C@@H]4c2ccccc2)C3c2ccc(C(F)(F)F)cc2)cc1 (stereo not given in full)
AC50 (Cytochrome P450 3A4): 15.8 µM (inconclusive)

OC(COc1ccc2c(c1)OCO2)CN1CCCC1 (stereo not given)
EC50 [11]: 53.2 µM (active)

Clc1ccc2nc(-c3ccccn3)c(Nc3ccc4c(c3)OCO4)n2c1
EC50 [12]: 6.89 µM (active) | EC50 (Streptokinase A): > 150 µM (not active) | IC50 [6]: 0.608 µM (not active) | EC50 (Streptococcus): 12.7 µM (active)

c1ccc(Nc2ccc3ccccc3c2)cc1
AC50 (Cytochrome P450 3A4): 25.1 µM (inconclusive)

Cc1ccccc1C(=O)Nc1ccc(-c2nc3cc(C(=O)c4ccccc4)ccc3[nH]2)cc1
CC50 [7]: 6.02 µM (active) | CC50 [1]: > 40 µM (active) | AC50 [8]: 1.36 µM (active)

COc1ccc(C2NC(c3ccc(OC)cc3OC)C(C)C(=O)C2C)c(OC)c1 (stereo not given)
AC50 [2]: > 380 µM (inactive) | EC50 (Protein RecA): > 380 µM (inactive) | IC50 [13]: 116 µM (active)

CC(=O)O[C@@]1(C(C)=O)CCC2C3CC(C)C4=CC(=O)CC[C@@]4(C)C3CC[C@]21C (stereo not given in full)
AC50 (Cytochrome P450 3A4): 39.8 µM (inconclusive)

CCC1=C(OC(=O)N(CC)CC)N2C(=O)O/C(=N\CCc3c[nH]c4ccccc34)[C@]2(Cc2ccccc2)[C@H]2C1=CC[C@H]1C(=O)NC(=O)[C@H]12
CC50 [1]: > 40 µM (active)

O=[N+]([O-])c1ccc(N2CCOCC2)c2ccncc12
AC50 [2]: > 380 µM (inactive) | EC50 (Protein RecA): 12.2 µM (active)

CC(Nc1c[nH]c(=O)[nH]c1=O)c1ccccc1 (stereo not given)
AC50 [2]: 23.9 µM (active) | EC50 (Protein RecA): 15.5 µM (active)

O=C(CCCCCCCCCCCCC1CCCC1)Nc1ccc(S(=O)(=O)c2ccc(NC(=O)CCCCCCCCCCCCC3CCCC3)cc2)cc1 [CHAULMOSULFONE]
AC50 (Cytochrome P450 3A4): 31.6 µM (inconclusive)

From ChEMBL document CHEMBL1201862, “PubChem BioAssay data set” (2004)
